This note sets out measurements from patent US11596622B2, “Mazindol treatment for heroin dependence and substance use disorder” (NLS Pharmaceutics AG, priority 2017, dated 2023).

The inhibition is the relative decrease from the control value, in per cent.

Holding throughout (conditions): 1.0 × 10^−05 M; antagonist radioligand; read-out: percent inhibition of the binding of a radioactively labeled ligand
One test addresses T1, 5-HT transporter(h) (Homo sapiens, UniProt P31645).
T1 construct: Eurofins CEREP
The experiment in a line: Radioligand binding, 5-HT transporter (Eurofins CEREP). The source says:
(§1) Table A discloses mazindol and Met tested at […] and the compound binding calculated as a percent inhibition of the binding of a radioactively labeled ligand specific for each target (Eurofins CEREP, France).
(§2) An inhibition or stimulation of more than 50% is considered a significant effect of the test compounds. Fifty percent is a common cut-off for further investigation (i.e. determination of IC50 or EC50 values from concentration-response curves).
(§3) The results are expressed as a percent of control specific binding obtained in the presence of the test compounds:
(§4) [formula] and as a percent inhibition of control specific binding obtained in the presence of the test compounds: […]

The target in another test is T2, Dopamine transporter(h) (Homo sapiens, UniProt Q01959).
T2 construct: Eurofins CEREP
Kind of test: Radioligand binding, dopamine transporter (Eurofins CEREP).
Source text: as §1, §2, §3, §4

In the next test the target is T3, H1(h) (Homo sapiens, UniProt P35367).
T3 construct: Eurofins CEREP
The experiment in a line: Radioligand binding, H1 (Eurofins CEREP).
Source text: as §1
An inhibition or stimulation of more than 50% is considered a significant effect of the test compounds. Fifty percent is a common cut-off for further investigation (i.e. determination of IC50 or EC50 values from concentration-response curves). Tables B and C display the binding profiles for Mazindol and Met.
as §3, §4

T2 sequence (Q01959 whole entry): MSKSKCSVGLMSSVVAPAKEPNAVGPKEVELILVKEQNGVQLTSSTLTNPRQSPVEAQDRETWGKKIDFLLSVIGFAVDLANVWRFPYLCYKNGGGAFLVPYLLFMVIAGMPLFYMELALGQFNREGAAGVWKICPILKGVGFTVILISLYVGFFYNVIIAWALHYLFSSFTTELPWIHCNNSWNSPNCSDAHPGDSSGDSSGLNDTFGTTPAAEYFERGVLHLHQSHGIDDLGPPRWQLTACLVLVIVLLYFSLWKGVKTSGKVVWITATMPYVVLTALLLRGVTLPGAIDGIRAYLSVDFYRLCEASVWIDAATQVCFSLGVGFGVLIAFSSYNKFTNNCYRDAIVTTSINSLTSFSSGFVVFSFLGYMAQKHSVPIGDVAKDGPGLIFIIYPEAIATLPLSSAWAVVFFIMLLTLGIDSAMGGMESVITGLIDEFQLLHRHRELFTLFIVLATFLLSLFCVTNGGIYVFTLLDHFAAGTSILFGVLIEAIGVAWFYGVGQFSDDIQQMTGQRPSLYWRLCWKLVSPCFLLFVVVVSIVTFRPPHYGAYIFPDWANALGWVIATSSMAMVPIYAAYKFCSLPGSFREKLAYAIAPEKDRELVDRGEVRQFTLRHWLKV
T1 sequence (P31645 whole entry): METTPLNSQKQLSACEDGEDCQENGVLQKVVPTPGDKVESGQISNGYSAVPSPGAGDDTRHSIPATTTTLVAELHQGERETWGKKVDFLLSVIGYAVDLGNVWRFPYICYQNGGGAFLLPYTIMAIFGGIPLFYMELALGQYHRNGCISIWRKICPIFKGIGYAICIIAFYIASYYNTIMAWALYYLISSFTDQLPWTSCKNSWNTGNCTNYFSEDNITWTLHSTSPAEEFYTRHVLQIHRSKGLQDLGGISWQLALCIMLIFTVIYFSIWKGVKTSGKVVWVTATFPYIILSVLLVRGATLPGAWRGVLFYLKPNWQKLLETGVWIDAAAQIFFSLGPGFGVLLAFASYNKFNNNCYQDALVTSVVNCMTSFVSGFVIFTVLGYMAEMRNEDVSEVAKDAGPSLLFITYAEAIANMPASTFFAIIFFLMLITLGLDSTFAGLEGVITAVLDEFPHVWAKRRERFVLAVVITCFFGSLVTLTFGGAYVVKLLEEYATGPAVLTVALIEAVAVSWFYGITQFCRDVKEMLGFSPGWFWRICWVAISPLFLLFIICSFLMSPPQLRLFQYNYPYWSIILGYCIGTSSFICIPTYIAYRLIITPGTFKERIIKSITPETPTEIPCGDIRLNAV
T3 sequence (P35367 whole entry): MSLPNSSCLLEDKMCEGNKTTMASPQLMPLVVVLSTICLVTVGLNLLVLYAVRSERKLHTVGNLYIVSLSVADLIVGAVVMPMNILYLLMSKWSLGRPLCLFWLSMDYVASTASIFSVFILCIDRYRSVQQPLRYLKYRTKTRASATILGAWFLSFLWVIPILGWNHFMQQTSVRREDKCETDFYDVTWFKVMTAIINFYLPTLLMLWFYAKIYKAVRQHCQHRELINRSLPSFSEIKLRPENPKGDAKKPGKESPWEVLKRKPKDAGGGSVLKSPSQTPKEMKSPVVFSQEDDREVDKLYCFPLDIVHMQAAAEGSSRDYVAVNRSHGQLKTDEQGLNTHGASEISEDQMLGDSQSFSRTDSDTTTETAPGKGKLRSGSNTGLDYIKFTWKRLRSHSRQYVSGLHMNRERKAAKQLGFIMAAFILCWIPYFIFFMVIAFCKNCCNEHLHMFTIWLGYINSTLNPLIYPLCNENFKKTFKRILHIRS

For the compound `OC1(c2ccc(Cl)cc2)c2ccccc2C2=NCCN21` (stereo not drawn) [Mazindol, 5-(4-chlorophenyl)-2,5-dihydro-3 H-imadazo[2,1-a]isoindol-5-ol], the figures for the inhibition at 10 µM on 5-HT transporter(h), on Dopamine transporter(h) and at H1(h) were 99.5%, 98.2% and 75.3%, respectively.
